Consider ten molecules from patent US12258327B2, “5-membered heteroaryl-containing aminopyridine compounds as EGFR inhibitors” (YUHAN CORPORATION, priority 2021, dated 2025).

Where two headings read alike, the source gives them in different places.

One experiment has as its target EGFR del19/T790M/C797S (Homo sapiens, UniProt P00533, C797S/DEL746-750/T790M). Put plainly: Biochemical EGFR kinase assay (Lance Ultra TR-FRET), triple mutant del19/T790M/C797S. The method, boiled down:
(§1)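 In this biochemical assay, phosphorylation after a one-hour room-temperature reaction was detected with europium-labelled anti-phosphopeptide antibody at 2 nM final concentration.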

A further experiment deals with EGFR wildtype (WT) (Homo sapiens, UniProt P00533). In words: Biochemical EGFR kinase assay (Lance Ultra TR-FRET), wildtype. The method, boiled down:
as §1
Background: TR-FRET usually uses a lanthanide donor and a delayed reading to cut background.

The next experiment addresses EGFR del19/C797S (Homo sapiens, UniProt P00533, C797S/DEL746-750). Put plainly: Biochemical EGFR kinase assay (Lance Ultra TR-FRET), double mutant del19/C797S. The method, boiled down:
as §1

The target in another experiment is EGFR L858R/T790M/C797S (Homo sapiens, UniProt P00533, C797S/L858R/T790M). Put plainly: Biochemical EGFR kinase assay (Lance Ultra TR-FRET), triple mutant L858R/T790M/C797S. The method, boiled down: as §1
Chain of EGFR L858R/T790M/C797S (P00533 25-1210 T790M/C797S/L858R): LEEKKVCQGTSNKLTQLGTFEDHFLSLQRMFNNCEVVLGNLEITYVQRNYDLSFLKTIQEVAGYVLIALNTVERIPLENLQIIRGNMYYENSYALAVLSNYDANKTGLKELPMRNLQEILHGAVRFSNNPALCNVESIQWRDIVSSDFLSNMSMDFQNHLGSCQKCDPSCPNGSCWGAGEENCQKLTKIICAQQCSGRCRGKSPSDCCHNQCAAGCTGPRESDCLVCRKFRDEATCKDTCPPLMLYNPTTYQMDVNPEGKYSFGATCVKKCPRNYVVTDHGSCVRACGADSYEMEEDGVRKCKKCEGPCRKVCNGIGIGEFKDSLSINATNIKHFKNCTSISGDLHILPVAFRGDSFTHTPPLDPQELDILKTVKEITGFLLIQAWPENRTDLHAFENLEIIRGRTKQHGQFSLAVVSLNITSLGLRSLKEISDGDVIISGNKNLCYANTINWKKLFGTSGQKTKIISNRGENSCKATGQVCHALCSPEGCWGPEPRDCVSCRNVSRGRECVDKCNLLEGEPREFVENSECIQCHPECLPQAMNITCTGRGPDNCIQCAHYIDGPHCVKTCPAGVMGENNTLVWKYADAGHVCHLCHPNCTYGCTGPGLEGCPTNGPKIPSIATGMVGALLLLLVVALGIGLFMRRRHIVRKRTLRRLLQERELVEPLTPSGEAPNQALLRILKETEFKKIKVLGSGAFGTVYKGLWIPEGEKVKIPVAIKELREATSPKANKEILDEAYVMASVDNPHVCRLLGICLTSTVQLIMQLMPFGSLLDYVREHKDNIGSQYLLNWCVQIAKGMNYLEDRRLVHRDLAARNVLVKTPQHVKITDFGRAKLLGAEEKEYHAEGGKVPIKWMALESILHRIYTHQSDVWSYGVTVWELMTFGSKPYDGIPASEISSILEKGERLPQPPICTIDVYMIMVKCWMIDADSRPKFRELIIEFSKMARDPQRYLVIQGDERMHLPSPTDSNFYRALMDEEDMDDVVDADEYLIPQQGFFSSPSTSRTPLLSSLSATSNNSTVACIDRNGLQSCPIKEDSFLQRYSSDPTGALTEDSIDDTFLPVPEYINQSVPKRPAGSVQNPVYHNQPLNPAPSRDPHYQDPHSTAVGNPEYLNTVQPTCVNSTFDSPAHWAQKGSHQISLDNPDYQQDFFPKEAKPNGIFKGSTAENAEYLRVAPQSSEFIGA
The next experiment concerns the target EGFR L858R/C797S (Homo sapiens, UniProt P00533, C797S/L858R). Put plainly: Biochemical EGFR kinase assay (Lance Ultra TR-FRET), double mutant L858R/C797S. A digest of the protocol:
as §1

Setting [1] is: IC50 del19/T790M/C797S (nM) 100 μM ATP, 100 μM ATP.
Where [2] appears, read: IC50 WT (nM) 100 μM ATP, 100 μM ATP.
Where [3] appears, read: IC50 del19/C797S (nM) 100 μM ATP, 100 μM ATP.
The mark [4] stands for this setting: IC50 L858R/T790M/C797S (nM) 100 μM ATP, 100 μM ATP.
The mark [5] stands for this setting: IC50 L858R/C797S (nM) 100 μM ATP, 100 μM ATP.
Setting [6] is: Km ATP, read-out: IC50 del19/T790M/C797S (nM) Km ATP.
Setting [7] is: Km ATP, read-out: IC50 L858R/T790M/C797S (nM) Km ATP.
The mark [8] stands for this setting: Km ATP, read-out: IC50 WT (nM) Km ATP.
The mark [9] stands for this setting: Km ATP, read-out: IC50 del19/C797S (nM) Km ATP.
Setting [10] is: Km ATP, read-out: IC50 L858R/C797S (nM) Km ATP.

Chain of EGFR del19/C797S (P00533 with tags, fused parts or gaps DEL746-750/C797S): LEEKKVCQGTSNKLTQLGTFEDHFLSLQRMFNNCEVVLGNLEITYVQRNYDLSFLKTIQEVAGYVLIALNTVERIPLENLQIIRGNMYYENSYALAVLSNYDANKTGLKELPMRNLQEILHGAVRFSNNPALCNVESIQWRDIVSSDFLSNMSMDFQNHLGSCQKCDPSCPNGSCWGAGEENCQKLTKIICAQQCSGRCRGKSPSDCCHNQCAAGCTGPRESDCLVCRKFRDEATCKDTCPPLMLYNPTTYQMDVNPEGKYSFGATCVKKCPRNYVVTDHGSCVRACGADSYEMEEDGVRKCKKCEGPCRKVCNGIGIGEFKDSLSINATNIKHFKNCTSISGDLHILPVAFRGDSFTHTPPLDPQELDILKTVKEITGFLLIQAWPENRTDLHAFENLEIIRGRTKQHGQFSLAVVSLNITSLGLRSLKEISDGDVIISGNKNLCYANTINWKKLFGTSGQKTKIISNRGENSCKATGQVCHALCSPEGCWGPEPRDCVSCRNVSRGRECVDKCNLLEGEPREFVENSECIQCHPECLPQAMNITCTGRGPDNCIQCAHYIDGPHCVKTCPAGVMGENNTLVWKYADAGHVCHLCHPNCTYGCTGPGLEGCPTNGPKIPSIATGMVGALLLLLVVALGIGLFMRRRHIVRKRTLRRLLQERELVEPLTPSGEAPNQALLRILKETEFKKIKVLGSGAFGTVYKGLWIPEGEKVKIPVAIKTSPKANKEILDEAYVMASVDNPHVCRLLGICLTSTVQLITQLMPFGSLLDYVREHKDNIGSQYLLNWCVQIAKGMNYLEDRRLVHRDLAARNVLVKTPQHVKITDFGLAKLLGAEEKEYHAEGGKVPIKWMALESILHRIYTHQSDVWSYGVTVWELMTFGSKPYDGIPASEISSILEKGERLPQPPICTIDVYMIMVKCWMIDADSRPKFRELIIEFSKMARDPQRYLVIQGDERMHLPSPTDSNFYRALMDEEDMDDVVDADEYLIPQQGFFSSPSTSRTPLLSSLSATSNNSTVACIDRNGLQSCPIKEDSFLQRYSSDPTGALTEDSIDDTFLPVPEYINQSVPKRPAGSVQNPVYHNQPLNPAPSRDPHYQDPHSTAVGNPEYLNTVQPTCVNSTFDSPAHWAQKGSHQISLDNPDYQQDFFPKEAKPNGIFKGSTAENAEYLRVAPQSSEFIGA
Chain of EGFR wildtype (WT) (P00533 25-1210): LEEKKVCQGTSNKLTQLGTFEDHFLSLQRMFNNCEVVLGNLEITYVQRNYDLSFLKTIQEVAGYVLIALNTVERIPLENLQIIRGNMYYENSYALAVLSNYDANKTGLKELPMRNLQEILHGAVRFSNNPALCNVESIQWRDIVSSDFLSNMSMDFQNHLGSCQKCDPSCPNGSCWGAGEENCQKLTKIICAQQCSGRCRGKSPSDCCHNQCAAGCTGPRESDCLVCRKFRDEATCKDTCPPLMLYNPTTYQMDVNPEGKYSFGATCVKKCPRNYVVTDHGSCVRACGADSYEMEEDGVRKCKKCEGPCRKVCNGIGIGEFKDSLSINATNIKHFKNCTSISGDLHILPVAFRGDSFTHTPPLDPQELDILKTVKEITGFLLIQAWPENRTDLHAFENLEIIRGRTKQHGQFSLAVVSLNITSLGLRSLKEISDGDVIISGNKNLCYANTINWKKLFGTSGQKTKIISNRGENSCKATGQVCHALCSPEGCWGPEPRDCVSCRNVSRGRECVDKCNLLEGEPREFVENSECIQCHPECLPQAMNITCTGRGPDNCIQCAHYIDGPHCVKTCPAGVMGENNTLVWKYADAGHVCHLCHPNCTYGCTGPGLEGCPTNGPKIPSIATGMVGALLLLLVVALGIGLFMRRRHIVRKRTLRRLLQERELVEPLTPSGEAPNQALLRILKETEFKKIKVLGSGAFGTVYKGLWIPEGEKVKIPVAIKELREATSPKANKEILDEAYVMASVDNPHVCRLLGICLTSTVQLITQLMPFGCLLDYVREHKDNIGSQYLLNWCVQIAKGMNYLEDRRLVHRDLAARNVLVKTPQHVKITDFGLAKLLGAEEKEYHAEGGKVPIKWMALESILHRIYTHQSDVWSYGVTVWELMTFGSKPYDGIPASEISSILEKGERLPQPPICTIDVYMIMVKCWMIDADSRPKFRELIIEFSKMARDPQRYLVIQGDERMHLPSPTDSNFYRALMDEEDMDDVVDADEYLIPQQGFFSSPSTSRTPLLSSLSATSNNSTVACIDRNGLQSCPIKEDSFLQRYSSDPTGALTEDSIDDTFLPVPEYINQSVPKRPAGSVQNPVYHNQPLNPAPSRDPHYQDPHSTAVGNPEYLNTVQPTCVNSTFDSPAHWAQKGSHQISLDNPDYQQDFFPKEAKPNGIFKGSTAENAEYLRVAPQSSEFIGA
Chain of EGFR L858R/C797S (P00533 25-1210 C797S/L858R): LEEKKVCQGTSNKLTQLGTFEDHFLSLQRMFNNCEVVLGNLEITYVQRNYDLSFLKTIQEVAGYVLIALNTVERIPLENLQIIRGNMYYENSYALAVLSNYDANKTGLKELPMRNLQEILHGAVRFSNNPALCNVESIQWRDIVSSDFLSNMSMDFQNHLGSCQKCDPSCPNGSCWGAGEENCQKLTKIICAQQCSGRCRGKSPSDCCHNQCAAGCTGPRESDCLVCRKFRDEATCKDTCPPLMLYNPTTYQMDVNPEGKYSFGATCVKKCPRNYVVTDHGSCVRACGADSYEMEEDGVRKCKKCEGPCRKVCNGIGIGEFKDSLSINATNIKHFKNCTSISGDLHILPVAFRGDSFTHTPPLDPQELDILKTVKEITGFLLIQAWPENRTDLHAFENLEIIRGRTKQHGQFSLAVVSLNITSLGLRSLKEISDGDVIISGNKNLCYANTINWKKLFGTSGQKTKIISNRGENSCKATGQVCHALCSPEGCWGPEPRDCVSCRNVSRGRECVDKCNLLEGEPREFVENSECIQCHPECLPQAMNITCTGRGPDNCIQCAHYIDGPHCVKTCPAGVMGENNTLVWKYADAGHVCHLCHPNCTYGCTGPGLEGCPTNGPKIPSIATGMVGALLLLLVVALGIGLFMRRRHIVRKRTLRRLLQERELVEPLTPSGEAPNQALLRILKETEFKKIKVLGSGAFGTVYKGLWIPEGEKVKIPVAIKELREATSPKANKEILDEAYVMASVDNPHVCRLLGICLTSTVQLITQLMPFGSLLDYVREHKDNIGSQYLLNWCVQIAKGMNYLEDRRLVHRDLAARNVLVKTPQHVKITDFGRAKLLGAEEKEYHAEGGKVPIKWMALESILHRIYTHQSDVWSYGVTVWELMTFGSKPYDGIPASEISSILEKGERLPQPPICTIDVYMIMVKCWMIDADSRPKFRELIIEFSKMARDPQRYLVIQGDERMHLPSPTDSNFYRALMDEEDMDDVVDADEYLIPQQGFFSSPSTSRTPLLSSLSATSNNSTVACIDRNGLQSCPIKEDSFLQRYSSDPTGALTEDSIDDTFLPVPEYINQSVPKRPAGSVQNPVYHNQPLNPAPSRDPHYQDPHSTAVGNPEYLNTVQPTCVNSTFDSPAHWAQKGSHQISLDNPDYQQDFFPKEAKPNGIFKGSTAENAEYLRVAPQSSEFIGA

For `CC1(CNc2cc(Nc3ccnc(-c4cnn(S(=O)(=O)C5CC5)c4)n3)ncc2-c2ccn(C(F)F)n2)CCC(O)CC1` (stereo not drawn) [Example 128, 4-(((2-((2-(1-(Cyclopropylsulfonyl)-1H-pyrazol-4-yl)pyrimidin-4-yl)amino)-5-(1-(difluoromethyl)-1H-pyrazol-3-yl)pyridin-4-yl)amino)methyl)-4-methylcyclohexan-1-ol], the IC50 on EGFR del19/T790M/C797S (setting [1]) is 3.1 nM; against EGFR wildtype (WT) (setting [2]), more than 10000 nM; at EGFR del19/C797S (setting [3]), 40.8 nM; against EGFR L858R/T790M/C797S (setting [4]) it was 6.4 nM; at EGFR L858R/C797S (setting [5]), 1120 nM.
Turning to `COc1ncc(-c2nccc(Nc3cc(N[C@H]4CC[C@@](C)(O)CC4)c(-c4ccn(C(F)F)n4)cn3)n2)cn1` [Example 312, (1s,4s)-4-((5-(1-(Difluoromethyl)-1H-pyrazol-3-yl)-2-((2′-methoxy-[2,5′-bipyrimidin]-4-yl)amino)pyridin-4-yl)amino)-1-methylcyclohexan-1-ol], the IC50 against EGFR del19/T790M/C797S (setting [1]) was 2.4 nM; on EGFR del19/T790M/C797S (setting [6]) it was 1.3 nM; on EGFR wildtype (WT) (setting [2]) it was more than 10000 nM; against EGFR del19/C797S (setting [3]) it was 353 nM; against EGFR L858R/T790M/C797S (setting [4]), 6.6 nM; at EGFR L858R/T790M/C797S (setting [7]), 1.3 nM. At EGFR L858R/C797S (setting [5]), this molecule gave an IC50 of more than 10000 nM.
`O=S(=O)(C1CC1)n1cc(-c2nccc(Nc3cc(NCC4CC5(CNC5)C4)c(-c4ccn(C(F)F)n4)cn3)n2)cn1` [Example 26, N^4-((2-Azaspiro[3.3]heptan-6-yl)methyl)-N^2-(2-(1-(cyclopropylsulfonyl)-1H-pyrazol-4-yl)pyrimidin-4-yl)-5-(1-(difluoromethyl)-1H-pyrazol-3-yl)pyridine-2,4-diamine]: the IC50 at EGFR del19/T790M/C797S (setting [1]) was 0.2 nM; on EGFR del19/T790M/C797S (setting [6]) it was 0.1 nM; on EGFR wildtype (WT) (setting [2]), 3740 nM; at EGFR wildtype (WT) (setting [8]), 6.7 nM; on EGFR del19/C797S (setting [3]), 1.8 nM; at EGFR del19/C797S (setting [9]), 1.3 nM. Besides, the IC50 at EGFR L858R/T790M/C797S (setting [4]) was determined as 0.3 nM; on EGFR L858R/T790M/C797S (setting [7]) it was 0.1 nM; on EGFR L858R/C797S (setting [5]), 26.5 nM; on EGFR L858R/C797S (setting [10]), 2.3 nM.
As for `CC(C)(O)[C@H]1CC[C@@H](Nc2cc(Nc3ccnc(-c4cnn(S(=O)(=O)C5CC5)c4)n3)ncc2-c2ccn(CC(F)(F)F)n2)CC1` [Example 265, 2-((1s,4s)-4-((2-((2-(1-(Cyclopropylsulfonyl)-1H-pyrazol-4-yl)pyrimidin-4-yl)amino)-5-(1-(2,2,2-trifluoroethyl)-1H-pyrazol-3-yl)pyridin-4-yl)amino)cyclohexyl)propan-2-ol], the IC50 against EGFR del19/T790M/C797S (setting [1]) was 5.4 nM; against EGFR wildtype (WT) (setting [2]), more than 10000 nM; on EGFR wildtype (WT) (setting [8]) it was 86.8 nM; against EGFR del19/C797S (setting [3]) it was 12.2 nM; at EGFR del19/C797S (setting [9]), 11.8 nM; on EGFR L858R/T790M/C797S (setting [4]), 7.4 nM. The figures for the IC50 against EGFR L858R/C797S (setting [5]) and on EGFR L858R/C797S (setting [10]) were 187 nM and 6.6 nM, respectively.
With `CN(C)S(=O)(=O)n1ccc(-c2nccc(Nc3cc(N[C@H]4CC[C@@](C)(O)CC4)c(-c4ccn(C(F)F)n4)cn3)n2)c1` [Example 109, 3-(4-((5-(1-(Difluoromethyl)-1H-pyrazol-3-yl)-4-(((1s,4s)-4-hydroxy-4-methylcyclohexyl)amino)pyridin-2-yl)amino)pyrimidin-2-yl)-N,N-dimethyl-1H-pyrrole-1-sulfonamide], the IC50 is 9.5 nM on EGFR del19/T790M/C797S (setting [6]); 538 nM on EGFR wildtype (WT) (setting [8]); 178 nM at EGFR del19/C797S (setting [9]); 2.2 nM on EGFR L858R/T790M/C797S (setting [7]); 14.5 nM at EGFR L858R/C797S (setting [10]).
In the case of `C[C@]1(O)CC[C@@H](Nc2cc(Nc3ccnc(-c4cnn(S(=O)(=O)C5CC5)c4)n3)ncc2-n2cccn2)CC1` [Example 376, (1s,4s)-4-((2-((2-(1-(Cyclopropylsulfonyl)-1H-pyrazol-4-yl)pyrimidin-4-yl)amino)-5-(1H-pyrazol-1-yl)pyridin-4-yl)amino)-1-methylcyclohexan-1-ol], the IC50 was 0.4 nM against EGFR del19/T790M/C797S (IC50 del19/T790M/C797S, 100 μM ATP); 0.2 nM at EGFR del19/T790M/C797S (Km ATP, read-out: IC50 del19/T790M/C797S, Km ATP); more than 10000 nM at EGFR wildtype (WT) (IC50 WT, 100 μM ATP); 144 nM on EGFR wildtype (WT) (Km ATP, read-out: IC50 WT, Km ATP); 8 nM on EGFR del19/C797S (IC50 del19/C797S, 100 μM ATP); 6 nM on EGFR del19/C797S (Km ATP, read-out: IC50 del19/C797S, Km ATP). Also, the IC50 was 0.9 nM against EGFR L858R/T790M/C797S (IC50 L858R/T790M/C797S, 100 μM ATP); 0.1 nM on EGFR L858R/T790M/C797S (Km ATP, read-out: IC50 L858R/T790M/C797S, Km ATP); 126 nM against EGFR L858R/C797S (IC50 L858R/C797S, 100 μM ATP); 11 nM at EGFR L858R/C797S (Km ATP, read-out: IC50 L858R/C797S, Km ATP).
With `O=S(=O)(C1CC1)n1cc(-c2nccc(Nc3cc(NC4CCCN(CCF)C4)c(-c4ccn(C(F)F)n4)cn3)n2)cn1` (stereo not drawn) [Example 218, N^2-(2-(1-(Cyclopropylsulfonyl)-1H-pyrazol-4-yl)pyrimidin-4-yl)-5-(1-(difluoromethyl)-1H-pyrazol-3-yl)-N^4-(1-(2-fluoroethyl)piperidin-3-yl)pyridine-2,4-diamine], the IC50 amounted to 0.5 nM on EGFR del19/T790M/C797S (setting [6]); 233 nM on EGFR wildtype (WT) (setting [8]); 43.9 nM at EGFR del19/C797S (setting [9]); 0.8 nM on EGFR L858R/T790M/C797S (setting [7]); 30.7 nM at EGFR L858R/C797S (setting [10]).
As for `O=S(=O)(C1CC1)n1cc(-c2nccc(Nc3cc(N[C@H]4CC[C@@H](CN5CCC5)CC4)c(-c4ccn(CC(F)F)n4)cn3)n2)cn1` [Example 247, N^4-((1s,4s)-4-(Azetidin-1-ylmethyl)cyclohexyl)-N^2-(2-(1-(cyclopropylsulfonyl)-1H-pyrazol-4-yl)pyrimidin-4-yl)-5-(1-(2,2-difluoroethyl)-1H-pyrazol-3-yl)pyridine-2,4-diamine], the IC50 came to 0.2 nM on EGFR del19/T790M/C797S (setting [1]); 0.3 nM on EGFR del19/T790M/C797S (setting [6]); 150 nM on EGFR wildtype (WT) (setting [2]); 0.7 nM on EGFR wildtype (WT) (setting [8]); 0.3 nM against EGFR del19/C797S (setting [3]); 0.2 nM on EGFR del19/C797S (setting [9]). For the same molecule, the IC50 was 0.1 nM against EGFR L858R/T790M/C797S (setting [4]), 0.1 nM at EGFR L858R/T790M/C797S (setting [7]), 0.7 nM at EGFR L858R/C797S (setting [5]) and 0.2 nM on EGFR L858R/C797S (setting [10]).
Consider `O=S(=O)(C1CC1)n1cc(-c2nccc(Nc3cc(N[C@H]4CC[C@@H](CO)CC4)c(-c4ccn(C5COC5)n4)cn3)n2)cn1` [Example 282, ((1s,4s)-4-((2-((2-(1-(Cyclopropylsulfonyl)-1H-pyrazol-4-yl)pyrimidin-4-yl)amino)-5-(1-(oxetan-3-yl)-1H-pyrazol-3-yl)pyridin-4-yl)amino)cyclohexyl)methanol], for which the IC50 against EGFR del19/T790M/C797S (setting [1]) stood at 0.3 nM; on EGFR del19/T790M/C797S (setting [6]) it was 0.3 nM; against EGFR wildtype (WT) (setting [2]) it was 370 nM; on EGFR wildtype (WT) (setting [8]), 0.6 nM; against EGFR del19/C797S (setting [3]), 0.5 nM; on EGFR del19/C797S (setting [9]), 0.1 nM. Moreover, the IC50 against EGFR L858R/T790M/C797S (setting [4]) worked out at 0.3 nM; at EGFR L858R/T790M/C797S (setting [7]) it was 0.1 nM; against EGFR L858R/C797S (setting [5]), 0.7 nM; on EGFR L858R/C797S (setting [10]), 0.1 nM.
For `O=S(=O)(C1CC1)n1cc(-c2nccc(Nc3cc(NC4CCC(F)CC4)c(-c4ccn(C(F)F)n4)cn3)n2)cn1` (stereo not drawn) [Example 214, N^2-(2-(1-(Cyclopropylsulfonyl)-1H-pyrazol-4-yl)pyrimidin-4-yl)-5-(1-(difluoromethyl)-1H-pyrazol-3-yl)-N^4-(4-fluorocyclohexyl)pyridine-2,4-diamine], the IC50 at EGFR del19/T790M/C797S (setting [6]) is 5.2 nM; at EGFR wildtype (WT) (setting [8]) it was 45.2 nM; on EGFR del19/C797S (setting [9]) it was 9.9 nM; at EGFR L858R/T790M/C797S (setting [7]) it was 3.1 nM; on EGFR L858R/C797S (setting [10]), 3.4 nM.
